Test results taken from article PMC3175016 (Journal of applied toxicology : JAT, 2011).
Like-named read-outs stand apart in the source and are kept apart here. Marks after values point to notes of the source that are not given here.

Assays:
male Fischer 344 rats [1] = conditions: ref Patel et al., 2008, cited from earlier work
male Fischer 344 rats [2] = assay: Six-hour urine protein content after a single i.p. dose; type: in vivo; conditions: i.p. in corn oil, mean ± SE, N = 3–4
male Fischer 344 rats [3] = assay: Liver weight 24 h after a single i.p. dose; type: in vivo; conditions: i.p. in corn oil, mean ± SE, N = 3–4
male Fischer 344 rats [4] = assay: Serum alanine aminotransferase; type: in vivo; conditions: 24 h; for serum alanine aminotransferase (ALT) activity: corn oil controls 36.0 ± 11.3
male Fischer 344 rats [5] = assay: Blood urea nitrogen; type: in vivo; conditions: i.p. in corn oil, 24 h, mean ± SE, N = 3–4
male Fischer 344 rats [6] = assay: Kidney weight 24 h after a single i.p. dose; type: in vivo; conditions: i.p. in corn oil, mean ± SE, N = 3–4
male Fischer 344 rats [7] = assay: Kidney histology; type: in vivo; conditions: all doses evaluated, i.p., 24 h, vs corn oil
male Fischer 344 rats [8] = assay: Urine volume after a single i.p. dose; type: in vivo; conditions: for Twenty-four-hour urine volume: i.p. in corn oil, mean ± SE, N = 3–4
male Fischer 344 rats [9] = assay: Liver histology; type: in vivo; conditions: 24 h
[10] = dose 0.2 (head mg/kg; text mmol/kg)
[11] = dose 0.4 (head mg/kg; text mmol/kg)
[12] = dose 0.6 (head mg/kg; text mmol/kg)
[13] = dose 1.0 (head mg/kg; text mmol/kg)

Compound | Six-hour urine protein content (male Fischer 344 rats [2]; [10]) | Six-hour urine protein content (male Fischer 344 rats [2]; [11]) | Six-hour urine protein content (male Fischer 344 rats [2]; [12]) | Six-hour urine protein content (male Fischer 344 rats [2]; [13]) | Liver weight (male Fischer 344 rats [3]; [10]) | Liver weight (male Fischer 344 rats [3]; [11]) | Liver weight (male Fischer 344 rats [3]; [12]) | Liver weight (male Fischer 344 rats [3]; [13]) | serum alanine aminotransferase (ALT) activity (male Fischer 344 rats [4]; 1.0 mmol/kg i.p. in corn oil) [Sigma-Frankel units/ml] | Blood urea nitrogen (male Fischer 344 rats [5]; [10]) | Blood urea nitrogen (male Fischer 344 rats [5]; [11]) | Blood urea nitrogen (male Fischer 344 rats [5]; [12]) | Blood urea nitrogen (male Fischer 344 rats [5]; [13]) | Kidney weight (male Fischer 344 rats [6]; [10]) | Kidney weight (male Fischer 344 rats [6]; [11]) | Kidney weight (male Fischer 344 rats [6]; [12]) | Kidney weight (male Fischer 344 rats [6]; [13]) | Kidney morphology (male Fischer 344 rats [7]) | Twenty-four-hour urine volume (male Fischer 344 rats [8]; [10]) | Twenty-four-hour urine volume (male Fischer 344 rats [8]; [11]) | other results
O=C1CSC(=O)N1c1cc(Cl)cc(Cl)c1 [DCPT, 3-(3,5-dichlorophenyl)-2,4-thiazolidinedione] |  |  |  |  |  |  |  |  |  |  |  |  |  |  |  |  |  |  |  |  | ALT values (male Fischer 344 rats [1]; 0.2 mmol/kg): 26.7 ± 6.6 SF units/ml; ALT values (male Fischer 344 rats [1]; 0.4 mmol/kg): 231.5 ± 50.0 SF units/ml; ALT values (male Fischer 344 rats [1]; 0.6 mmol/kg): 281.7 ± 103.0 SF units/ml; ALT values (male Fischer 344 rats [1]; 1.0 mmol/kg): 506.9 ± 99.4 SF units/ml
CC1SC(=O)N(c2cc(Cl)cc(Cl)c2)C1=O (stereo not shown) [DPMT, 3-(3,5-dichlorophenyl)-5-methyl-2,4-thiazolidinedione] | 2.1 ± 0.7^a mg | 1.6 ± 0.1^a mg | 2.6 ± 0.8^a mg | 2.5 ± 0.3^a mg | 3.67 ± 0.31^a g/100% BW | 3.81 ± 0.22^a g/100% BW | 4.03 ± 0.27^a g/100% BW | 4.10 ± 0.07^a g/100% BW | 327.3 ± 102.9 | 19.6 ± 0.8^a mg/dl | 24.6 ± 1.3^a mg/dl | 19.8 ± 2.8^a mg/dl | 20.0 ± 2.2^a mg/dl | 0.37 ± 0.01^a g/ 100% BW | 0.38 ± 0.01^a g/ 100% BW | 0.39 ± 0.01^a g/ 100% BW | 0.41 ± 0.01^a g/ 100% BW | did not exhibit obvious changes in kidney morphology | 6.5 ± 2.1^a ml | 8.1 ± 1.7^a ml | serum alanine aminotransferase (ALT) activity (male Fischer 344 rats [4]; 0.6 mmol/kg i.p. in corn oil): 298.6 ± 176.1 Sigma-Frankel units/ml; Change in serum ALT levels (male Fischer 344 rats [4]; 0.6 and 1.0 mmol/kg i.p., vs two lower doses and corn oil): significant elevation in ALT concentrations; Increase in urine volume (male Fischer 344 rats [8]; 0.6 and 1.0 mmol/kg): about three-fold increase; Twenty-four-hour urine volume (male Fischer 344 rats [8]; [12]): 11.6 ± 1.0*,^a ml; Twenty-four-hour urine volume (male Fischer 344 rats [8]; [13]): 10.8 ± 1.3*,^a ml; Liver morphology (male Fischer 344 rats [9]; 0.6 mmol/kg i.p.): some damage near the centrilobular vein; Liver morphology (male Fischer 344 rats [9]; 1.0 mmol/kg i.p.): more damaged hepatocytes; Liver morphology (male Fischer 344 rats [9]; 0.2 and 0.4 mmol/kg i.p.): did not show any noticeable changes in liver morphology
O=C1CSC(=O)N1c1ccccc1 [PTZD, 3-phenyl-2,4-thiazolidinedione] | 2.1 ± 0.5^d mg | 2.1 ± 0.2^d mg | 3.4 ± 0.9^d mg | 2.3 ± 0.6^d mg | 3.69 ± 0.25^e g/100% BW | 3.68 ± 0.18^e g/100% BW | 4.08 ± 0.08^e g/100% BW | 4.24 ± 0.06*,^e g/100% BW | 1196.2 ± 133.6 | 24.8 ± 1.9^d mg/dl | 24.1 ± 0.9^d mg/dl | 28.6 ± 2.0*,^d mg/dl | 31.3 ± 2.4*,^d mg/dl | 0.36 ± 0.01^d g/ 100% BW | 0.40 ± 0.00*,^e g/ 100% BW | 0.41 ± 0.01*,^e g/ 100% BW | 0.47 ± 0.01 *,^f g/ 100% BW | dilation of distal tubules and collecting tubules | 6.1 ± 1.7^d ml | 11.5 ± 3.2^d ml | Change in serum ALT levels (male Fischer 344 rats [4]; 0.2 mmol/kg i.p., vs corn oil): did not produce a significant change; ALT elevation compared to corn oil controls (male Fischer 344 rats [4]; 0.4 mmol/kg i.p.): approximately 7 fold; ALT elevation compared to corn oil controls (male Fischer 344 rats [4]; 0.6 mmol/kg i.p.): ~26 fold; ALT elevation compared to corn oil controls (male Fischer 344 rats [4]; 1.0 mmol/kg i.p.): ~33 fold; Twenty-four-hour urine volume (male Fischer 344 rats [8]; [12]): 12.5 ± 2.4^d ml; Twenty-four-hour urine volume (male Fischer 344 rats [8]; [13]): 22.6 ± 0.4*,^e ml; Liver morphology (male Fischer 344 rats [9]; 0.2 mmol/kg i.p.): did not show any signs of hepatic damage; Liver morphology (male Fischer 344 rats [9]; 0.4 mmol/kg i.p.): some damage with granular and irregularly stained cytoplasm and indistinct nuclei; Liver morphology (male Fischer 344 rats [9]; 1.0 mmol/kg i.p.): larger necrotic lesions were present and an acute inflammatory response occurred
